{"source": "patent US12371454B2", "about": "“Cyclic peptide compound having Kras inhibitory action” (priority 2019, dated 2025)", "note": "Starred links: 1 amine or outer side, 2 acyl side, 3 side chain; linkers in the order of their positions; H or OH if unused. Positions of bridges follow the written chain, without caps; N, C: chain ends. Non-standard residues stand in square brackets, D forms with d. Residues, ends and D or L forms follow the SMILES beside them. *: point of attachment. hPhe(3,5-F2-4-CF3) = N[C@@H](CCc1cc(F)c(C(F)(F)F)c(F)c1)C(=O)O; hPhe(3-Cl-4-CF3) = N[C@@H](CCc1ccc(C(F)(F)F)c(Cl)c1)C(=O)O; NMePhe(4-CF3) = CN[C@@H](Cc1ccc(C(F)(F)F)cc1)C(=O)O; Phe(2-F,5-Br) = N[C@@H](Cc1cc(Br)ccc1F)C(=O)O; NMePhe(4-Me) = CN[C@@H](Cc1ccc(C)cc1)C(=O)O; NMedβ3hAla = C[C@H](CC(=O)[*:2])N(C)[*:1]; NMeAla(cPent) = CN[C@@H](CC1CCCC1)C(=O)O; NMeGly(cPent) = CN[C@H](C(=O)O)C1CCCC1; Pro(4,4-F2) = O=C(O)[C@@H]1CC(F)(F)CN1; NMeY = CN[C@@H](Cc1ccc(O)cc1)C(=O)O; NMeCha = CN[C@@H](CC1CCCCC1)C(=O)O; NMeChg = CN[C@H](C(=O)O)C1CCCCC1; NMeI = CC[C@H](C)[C@H](NC)C(=O)O; NMeD = CN[C@@H](CC(=O)O)C(=O)O; NMeL = CN[C@@H](CC(C)C)C(=O)O; NMeV = CN[C@H](C(=O)O)C(C)C; d(β3hA) = C[C@@H](N)CC(=O)O; NMeAbu = CC[C@H](NC)C(=O)O; Pip = O=C(O)[C@@H]1CCCCN1; NMeA = CN[C@@H](C)C(=O)O; NMeAib = CNC(C)(C)C(=O)O; Nle = CCCC[C@H](N)C(=O)O; Piperidide = C1CCN(*)CC1; Pyrrolidide = C1CCN(*)C1; Ac5c = NC1(C(=O)O)CCCC1; Aze = O=C(O)[C@@H]1CCN1; Ac4c = NC1(C(=O)O)CCC1; Sar = CNCC(=O)O"}
{"target": "T1, Kras and SOS1 (biotin-tagged human Kras loaded with GDP, His-tagged human SOS1) (Homo sapiens, UniProt P01116, G12D)", "T1 construct": "made in house; host or cells: E. coli (stated for Kras only)", "T1 sequence (P01116 1-188 isoform P01116-2 G12D)": "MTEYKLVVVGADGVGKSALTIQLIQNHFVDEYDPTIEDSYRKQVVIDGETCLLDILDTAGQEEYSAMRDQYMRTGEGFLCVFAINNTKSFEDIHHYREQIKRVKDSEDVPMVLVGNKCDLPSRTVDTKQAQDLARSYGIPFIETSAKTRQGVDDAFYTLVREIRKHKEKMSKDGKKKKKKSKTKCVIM", "test": "Protein-protein interaction inhibition between Kras and SOS1 (KrasGl2D-SOS PPI) using AlphaScreen", "type": "binding", "conditions": "AlphaScreen; biotin-tagged human Kras loaded with GDP, His-tagged human SOS1; read-out: KRAS G12D-SOS PPI IC50", "method_in_brief": "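Read-out is acceptor-bead light at 520-620 nm, arising when 680 nm-irradiated nickel donor beads pass singlet oxygen to streptavidin acceptors. The bead pair links His-tagged SOS1 with biotin-tagged, GDP-bound Kras from E. coli.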", "units": {"IC50": "nM"}}
{"smiles": "CC[C@H](C)[C@@H]1NC(=O)[C@H](CC(C)C)N(C)C(=O)C[C@@H](C(=O)N2CCCC2)N(C)C(=O)[C@H](C2CCCCC2)N(C)C(=O)C2(CCC2)NC(=O)[C@@H]2CCCN2C(=O)[C@H](CCc2cc(F)c(C(F)(F)F)c(F)c2)NC(=O)CN(C)C(=O)[C@H](CC2CCCCC2)N(C)C(=O)CN(C)C(=O)CN(C)C1=O", "note": "[Compound 1165] ([NMeL]I[Sar][Sar][NMeCha][Sar][hPhe(3,5-F2-4-CF3)]P[Ac4c][NMeChg][NMeD]-Pyrrolidide; lactam N-11)", "IC50": 0.73}
{"smiles": "CC[C@H](C)[C@@H]1NC(=O)[C@H](CC(C)C)N(C)C(=O)C[C@@H](C(=O)N2CCCCC2)N(C)C(=O)[C@H](CC)N(C)C(=O)C2(CCCC2)NC(=O)[C@@H]2CCCN2C(=O)[C@H](CCc2ccc(C(F)(F)F)c(Cl)c2)NC(=O)CN(C)C(=O)[C@H](CC2CCCCC2)N(C)C(=O)CN(C)C(=O)CN(C)C1=O", "note": "[Compound 1741] ([NMeL]I[Sar][Sar][NMeCha][Sar][hPhe(3-Cl-4-CF3)]P[Ac5c][NMeAbu][NMeD]-Piperidide; lactam N-11)", "IC50": 3.8}
{"smiles": "CC[C@H](C)[C@@H]1NC(=O)[C@H](CC(C)C)N(C)C(=O)C[C@@H](C(=O)N2CCCCC2)N(C)C(=O)[C@H](C(C)C)N(C)C(=O)C2(CCCC2)NC(=O)[C@@H]2CCCN2C(=O)[C@H](CCc2ccc(C(F)(F)F)c(Cl)c2)NC(=O)CN(C)C(=O)[C@H](CC2CCCCC2)N(C)C(=O)[C@@H]2CCN2C(=O)[C@H](CC2CCCC2)N(C)C1=O", "note": "[Compound 1552] ([NMeL]I[NMeAla(cPent)][Aze][NMeCha][Sar][hPhe(3-Cl-4-CF3)]P[Ac5c][NMeV][NMeD]-Piperidide; lactam N-11)", "IC50": 61}
{"smiles": "CC[C@H](C)[C@@H]1NC(=O)[C@H](CC(C)C)N(C)C(=O)C[C@@H](C(=O)N(C)C)N(C)C(=O)[C@H]([C@@H](C)CC)N(C)C(=O)C2(CCCC2)NC(=O)[C@@H]2CCCN2C(=O)[C@H](CCc2ccc(C(F)(F)F)c(Cl)c2)NC(=O)CN(C)C(=O)[C@H](Cc2ccc(C)cc2)N(C)C(=O)CN(C)C(=O)CN(C)C1=O", "note": "[Compound 1836] ([NMeL]I[Sar][Sar][NMePhe(4-Me)][Sar][hPhe(3-Cl-4-CF3)]P[Ac5c][NMeI][NMeD]-NMe2; lactam N-11)", "IC50": 0.47}
{"smiles": "CC[C@H](C)[C@@H]1NC(=O)[C@@H]2CCCCN2C(=O)C[C@@H](C)NC(=O)[C@H](CC(C)C)N(C)C(=O)C2(CCCC2)NC(=O)[C@H](CC(C)C)N(C)C(=O)[C@H](CCc2ccc(C(F)(F)F)c(Cl)c2)NC(=O)CN(C)C(=O)[C@H](CC2CCCCC2)N(C)C(=O)CN(C)C(=O)CN(C)C1=O", "note": "[Compound 213] (cyclo([Ac5c][NMeL][d(β3hA)][Pip]I[Sar][Sar][NMeCha][Sar][hPhe(3-Cl-4-CF3)][NMeL]))", "IC50": 48}
{"smiles": "CCCC[C@@H]1NC(=O)[C@H](Cc2cc(Br)ccc2F)NC(=O)CN(C)C(=O)[C@H](Cc2ccc(OC)cc2)N(C)C(=O)[C@@H]2CCN2C(=O)[C@H](C)N(C)C(=O)[C@H]([C@@H](C)CC)NC(=O)[C@H](CC)N(C)C(=O)C[C@@H](C(=O)N2CCCCC2)N(C)C(=O)[C@H](CC(C)C)NC(=O)C(C)(C)N(C)C1=O", "note": "[Compound 1177] ([NMeAbu]I[NMeA][Aze][NMeY](Me)[Sar][Phe(2-F,5-Br)][Nle][NMeAib]L[NMeD]-Piperidide; lactam N-11)", "IC50": 12}
{"smiles": "CC[C@H](C)[C@@H]1NC(=O)[C@H](CC(C)C)N(C)C(=O)C[C@@H](C)N(C)C(=O)[C@H]([C@@H](C)CC)N(C)C(=O)C2(CCCC2)NC(=O)[C@@H]2CC(F)(F)CN2C(=O)[C@H](CCc2cc(F)c(C(F)(F)F)c(F)c2)NC(=O)CN(C)C(=O)[C@H](Cc2ccc(C(F)(F)F)cc2)N(C)C(=O)[C@@H]2CCN2C(=O)[C@H](C)N(C)C1=O", "note": "[Compound 863] (cyclo([Ac5c][NMeI][NMedβ3hAla][NMeL]I[NMeA][Aze][NMePhe(4-CF3)][Sar][hPhe(3,5-F2-4-CF3)][Pro(4,4-F2)]))", "IC50": 2.5}
{"smiles": "CC[C@H](C)[C@@H]1NC(=O)[C@H](CC(C)C)N(C)C(=O)C[C@@H](C)NC(=O)[C@H](C2CCCC2)N(C)C(=O)C2(CCCC2)NC(=O)[C@H](C)NC(=O)[C@H](CCc2ccc(C(F)(F)F)c(Cl)c2)NC(=O)CN(C)C(=O)[C@H](Cc2ccc(C)cc2)N(C)C(=O)[C@@H]2CCN2C(=O)[C@H](C)N(C)C1=O", "note": "[Compound 1307] (cyclo(A[Ac5c][NMeGly(cPent)][d(β3hA)][NMeL]I[NMeA][Aze][NMePhe(4-Me)][Sar][hPhe(3-Cl-4-CF3)]))", "IC50": 2.7}
{"smiles": "CCCC[C@@H]1NC(=O)[C@H](CC(C)C)N(C)C(=O)C[C@@H](C(=O)N2CCCCC2)N(C)C(=O)[C@H](C2CCCCC2)N(C)C(=O)C2(CCCC2)NC(=O)[C@@H]2CCCN2C(=O)[C@H](CCc2ccc(C(F)(F)F)c(Cl)c2)NC(=O)CN(C)C(=O)[C@H](CC2CCCCC2)N(C)C(=O)CN(C)C(=O)CN(C)C1=O", "note": "[Compound 1723] ([NMeL][Nle][Sar][Sar][NMeCha][Sar][hPhe(3-Cl-4-CF3)]P[Ac5c][NMeChg][NMeD]-Piperidide; lactam N-11)", "IC50": 3.6}
